Earlier results as cited in publication PMC8522729 (Antimicrobial Agents and Chemotherapy, 2021).

System: M. tuberculosis
Conditions: cited from earlier work

Structure (SMILES): O=C1CCc2c(OC[C@]3(O)CCN(c4c(F)cc(Cl)cc4F)C[C@H]3O)ccc(F)c2N1 [OPC-167832]
- frequency of resistance: < 1.9 × 10^−7
